From patent publication US20250108070A1, “METHOD FOR REPROGRAMMING CD8+ T CELLS TO ENHANCE THEIR THERAPEUTIC POTENTIAL AND APPLICATIONS THEREOF” (INSTITUT PASTEUR, priority 2022, published 2025)

Test system: mTORC1 and mTORC2 pathways
Experiment: Screening of GSK3 inhibitors: phospho-S6 / phospho-AKT staining (activation of mTORC1 and mTORC2 pathways)
Format: cell-based, human
Conditions: FIG. 12A, in words
Procedure: FIG. 12. Screening molecules for reprogramming human CD8^+ T cells Total CD8^+ T cells were purified and treated for 12 hs with titrated doses of GSK3 inhibitors or DMSO vehicle control. After drug washout, cells were stimulated for 48 hs with plate-bound anti-CD3/anti-CD28 antibodies (at 1 mg/mL), followed by flow cytometry analyses. A. Upon stimulation, intracellular cytokine and phospho-protein staining was performed, the latter for the detection of phospho-S6 and phospho-AKT proteins (indicative of activation of mTORC1 and mTORC2 pathways, respectively). The fold change in the frequency of IFN-γ^+TNF-α^+ and pS6^+pAKT^+ cells induced by the treatment with each GSK3 inhibitor, relative to DMSO control, was analyzed. […] B. Fold change in the expression of the indicated markers and memory phenotypes induced by anti-CD3/anti-CD28 antibody stimulation relative to unstimulated cells (at least 3 donors per condition). TCM: T central memory; TEM: T effector memory; TTM: T transitional memory; TTE: T terminal effector; TSCM: T stem cell memory.
For reprogramming of CD8^+ T cells followed by polyclonal stimulation, cells were isolated by negative magnetic bead sorting (Stemcell Technologies). For reprogramming of CD8^+ T cells followed by antigen-specific stimulation, PBMC and magnetically separated CD8^+ T cells and non-CD8^+ T cells were used (REAlease® CD8 MicroBead Kit; Miltenyi Biotech). Then, CD8^+ T cells were treated with a GSK3 inhibitor (6-Bromoindirubin-3′-oxime; BIO; Sigma-Aldrich), at 3 μM, or an equivalent concentration of dimethyl sulfoxide (DMSO) vehicle control, in complete medium, for 12 hs at 37° C., 5% CO2. Non-CD8 cells were left resting during this time in complete medium. CD8^+ T cells were washed with complete medium and stimulated with the peptide pool in presence of non-CD8 T cells.
In some experiments, cells were culture in RPMI medium without glucose (MP Biomedicals). CD8^+ T cell proliferation was evaluated by CFSE dilution (at 1 μM, Thermo Fisher Scientific). In additional experiments, reprogrammed CD8^+ T cells were stimulated with IL-7 or IL-15 (both at 10 ng/mL; R&D) and cultured for 6 days. In all the cases, cells were cultured at a density of 2×10^6 cells/mL.
After cultures, cells were stained with the LIVE/DEAD Fixable Aqua Dead Cell Stain kit (Thermo Fisher Scientific), with anti-CD3 Alexa Fluor 700 or APC efluor 780 and anti-CD8 PE Texas Red antibodies, accordingly. […] In some experiments, cells were stained with APC-conjugated dextramers (Immudex), incubated for 15 minutes at room temperature. Additional surface staining panels included anti-HLA-DR Superbright 780, anti-CD38 Superbright 600, anti-PD-1 BV421, anti-LAG-3 APC efluor 780, anti-TIM3 PE Cy7, and anti-TIGIT BV786 antibodies, or anti-CD122 PE and anti-CD215 FITC antibodies. The BD Transcription Factor Buffer Set kit (BD Biosciences) was used for cell fixation and permeabilization. […] Cell acquisition was performed using LSR II or ARIA III flow cytometers (both from BD Biosciences), and data were analyzed with FlowJo v.10 software (BD Biosciences).
The inventors explored GSK3 inhibitors to expand the array of molecules that could be used for CD8^+ T cell reprogramming. They implemented a screening approach that combined the evaluation of cytokine polyfunctionality of CD8^+ T cells (IFN-γ+TNFα+) vs the activation of mTORC1 and mTORC2 pathways (pS6+pAKT+) upon treatment with the GSK3 inhibitors and subsequent polyclonal stimulation.

Q: O=C1Nc2cc(Br)ccc2/C1=C1/Nc2ccccc2/C1=N\O [BIO, 6-bromoindirubin-3′-oxime] was tested. Which “frequency of pS6+pAKT+ cells / activation of mTORC pathway” value did it give?
A: lower frequency
